Assays:
Format in all cases: cell-based
LNCaP tumour cell line = assay: Dose per cell at LD50, 7500 cell six day assay; conditions: 7500 cells, dose per cell limiting
From the text: (§1) Tumour cell line LNCaP was used at 7500 cells in a six day assay format while 786-O was used in a 650 cell, six day format where dose per cell is not a limiting factor determining LD50 as well as in 5000 cell, three day format where dose per cell does limit LD50.

A2058 tumour cell line = assay: Dose per cell at LD50, 5000 cell six day assay; conditions: A2058, 5000 cells, dose per cell limiting
From the text: (§2) Tumour cell lines A2058, NO36 and LS174T and the normal adult dermal fibroblast line NHDF-Ad were used in 5000 cell, six day assays to compare dose per cell at LD50 values for BEC (1:1 solamargine:solasonine), solamargine, solasonine and an equimolar mixture of solamargine and solasonine. Data from the fibroblast cell line NHRE in a 2500 cell 3 day assay was also obtained.

LS174T tumour cell line = assay: Dose per cell at LD50, 5000 cell six day assay; conditions: 5000 cells, dose per cell limiting
From the text: as §2

[1] = tested on: NHDF-Ad normal adult dermal fibroblast line; assay: Dose per cell at LD50, 5000 cell six day assay; conditions: NHDF-Ad normal cells, 5000 cells, dose per cell limiting
From the text: as §2

NO36 tumour cell line [2] = assay: Dose per cell at LD50, 5000 cell six day assay; conditions: NO36, 5000 cells, dose per cell limiting
From the text: as §2

786-O tumour cell line [3] = assay: Dose per cell at LD50, 5000 cell three day format (dose per cell limiting); conditions: 5000 cells
From the text: as §1

[4] = tested on: NHRE fibroblast cell line; assay: Dose per cell at LD50, 2500 cell 3 day assay; conditions: NHRE normal cells, 2500 cells, dose per cell limiting
From the text: as §2

786-O tumour cell line [5] = assay: Dose per cell at LD50, 650 cell six day format (dose per cell not limiting); conditions: 650 cells
From the text: as §1

786-O tumour cell line [6] = assay: Effect of solamargine:solasonine ratio on cytotoxicity, MTT cell proliferation assay; conditions: 3 day assay, 5000 cells
Description: (§3) Tumour cell lines 786-O and NO36 and normal fibroblasts NHDF-Ad were used in 5000 cell assays, for three, six and six day assays, respectively, to study the effect of solamargine:solasonine ratio on cytotoxicity.
(§4) Solutions of 4 mg/mL solamargine and 4 mg/mL solasonine in 3% acetic acid were mixed to provide the various ratios. These mixtures were diluted in the culture medium appropriate to the cell line used to concentrations ranging from 0.32 to 40 ug/mL. Fifty uL aliquots were added to tissue culture wells seeded with 5000 cells in 150 uL culture medium 24 hours previously.
(§5) Cell survival was assessed using the MTT cell proliferation assay following four days growth after application of the alkaloids. The formazan absorbance of alkaloid treated wells relative to wells treated with an equivalently dilute acetic acid solution expressed as a percentage has been taken as percentage cell survival.

[7] = tested on: NHDF-Ad normal fibroblasts; assay: as above; conditions: 6 day assay, 5000 cells
Description: as §3, §4, §5

NO36 tumour cell line [8] = assay: as above; conditions: NO36, 6 day assay, 5000 cells
Description: as §3, §4, §5

Structure (SMILES)	Dose per cell at LD50, pg/cell of total alkaloid (LNCaP tumour cell line)	Dose per cell at LD50, pg/cell of total alkaloid (A2058 tumour cell line)	Dose per cell at LD50, pg/cell of total alkaloid (LS174T tumour cell line)	Dose per cell at LD50, pg/cell of total alkaloid [1]	Dose per cell at LD50, pg/cell of total alkaloid (NO36 tumour cell line [2])	Dose per cell at LD50, pg/cell of total alkaloid (786-O tumour cell line [3])	Dose per cell at LD50, pg/cell of total alkaloid [4]	Dose per cell at LD50, pg/cell of total alkaloid (786-O tumour cell line [5])	Dose per cell at LD50, (786-O tumour cell line [6])	Dose per cell at LD50, [7]	Dose per cell at LD50, (NO36 tumour cell line [8])
C[C@@H]1CC[C@@]2(NC1)O[C@H]1C[C@H]3[C@@H]4CC=C5C[C@@H](O[C@@H]6O[C@H](CO)[C@H](O)[C@H](O[C@@H]7O[C@H](CO)[C@@H](O)[C@H](O)[C@H]7O)[C@H]6O[C@@H]6O[C@@H](C)[C@H](O)[C@@H](O)[C@H]6O)CC[C@]5(C)[C@H]4CC[C@]3(C)[C@H]1[C@@H]2C [Solasonine, solasonine]	432.5 pg/cell	685 pg/cell	>400 pg/cell	587.6 pg/cell	613.2 pg/cell	>400 pg/cell	1657.7 pg/cell	5606.0 pg/cell	500 pg	400 pg	613 pg
C[C@@H]1CC[C@@]2(NC1)O[C@H]1C[C@H]3[C@@H]4CC=C5C[C@@H](O[C@@H]6O[C@H](CO)[C@@H](O[C@@H]7O[C@@H](C)[C@H](O)[C@@H](O)[C@H]7O)[C@H](O)[C@H]6O[C@@H]6O[C@@H](C)[C@H](O)[C@@H](O)[C@H]6O)CC[C@]5(C)[C@H]4CC[C@]3(C)[C@H]1[C@@H]2C [Solamargine, solamargine]	121.9 pg/cell	199.0 pg/cell	162.8 pg/cell	209.2 pg/cell	154.8 pg/cell	208.0 pg/cell	227.9 pg/cell	1394.0 pg/cell	304 pg	112 pg	209 pg

From patent US20040053857A1, “Glycoalkaloid compositions and various uses thereof” (priority 2002, published 2004)
